Source: paper PMC12325182, “Discovery of novel and potent celastrol derivatives as PRDX1 inhibitors for cancer therapy through structure-based virtual screening” (Frontiers in Pharmacology, 2025)

Columns and labels:
[1] = target: other PRDX family members and a panel of kinases; test: Kinase selectivity assay (whole panel); assay type: biochemical; settings: whole panel of Table S1; read-out: IC50 against other PRDX family members and a panel of kinases
Description: The selectivity of CP1 for PRDX1 was evaluated through kinase selectivity assays against other PRDX family members and a panel of kinases. The experiments were conducted by ICE Biosciences (Beijing, China).

PRDX1 = target: T1, PRDX1 (Homo sapiens, UniProt Q06830); test: Kinetics studies of PRDX1 inhibition; assay type: biochemical; settings: mean ± SD, n = 3
T1 sequence (Q06830 1-199): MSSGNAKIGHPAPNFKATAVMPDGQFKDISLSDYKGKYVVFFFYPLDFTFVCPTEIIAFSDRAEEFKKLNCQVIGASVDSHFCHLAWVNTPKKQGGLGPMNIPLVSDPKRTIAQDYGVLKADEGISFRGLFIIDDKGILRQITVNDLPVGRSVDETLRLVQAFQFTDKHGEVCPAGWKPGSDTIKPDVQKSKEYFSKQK
Description: The PRDX1 protein (0.5 nM) was incubated with varying concentrations of the CP1 (0, 0.6, 1.5, and 3.8 nM) at room temperature for 1 h. Subsequently, the Trx/TrxR/NADPH mixture was added and the enzymatic reaction was initiated by the addition of different concentrations of H2O2 (5–1,000 μM). The absorbance changes at 340 nm were monitored in real-time using a microplate reader. Kinetic parameters, including the Michaelis constant (Km), maximum reaction rate (Vmax), and α value, were determined by fitting the data to the Michaelis-Menten equation.

## CC1=C(CC(=O)/C=C/c2cccc(CO)c2)C(=O)C=C2C1=CC=C1[C@@]2(C)CC[C@@]2(C)C3C[C@](C)(C(=O)CCc4nc(C(O)C(O)O)c(C)nc4C)CC[C@]3(C)CC[C@]12C (stereo partly shown) [CP1]
[1]
  IC50: > 30 µM
PRDX1; CP1 concentration 0.6 nM
  Vmax: 56.2 ± 1.94 M/s
PRDX1; CP1 concentration 1.5 nM
  Vmax: 40.7 ± 2.42 M/s
PRDX1; CP1 concentration 3.8 nM
  Vmax: 26.8 ± 1.07 M/s
